What was measured:
RDM4 = experiment: DNA fragmentation by marking with propidium iodure on RDM4; type: cell-based, mouse
Text: A second specific marking of apoptosis is the fragmentation of DNA between the nucleosomes. The fragmented DNA is located in the apoptotic bodies in the terminal phase of apoptosis. This DNA is hypodiploid and so less in quantity than that present in normal cells. It can be quantified by flux cytometry after permeabilisation of the cell membranes and marking with PI. The quantity of DNA in a normal cell is 2n in the G0/G1 phase and 4n in the G2 phase. Therefore, the sub-G0 DNA in a quantity of less than 2n has a weaker fluorescence intensity.
This phenomenon tends to diminish after 48 hrs of treatment. On the other hand, when the cells are treated with 45 μM, the formation of hypodiploid particles, visualised by the sub-G0 DNA content, is less than 10% at 24 hrs and exceeds 50% at 48 hrs such as to reach 60% at 72 hrs. […] The quantity of hypodiploid particles in the control cells remains less than 4% over this same period.

MOLT-4 = experiment: Proliferation test (UptiBlue) on MOLT-4; type: cell-based, human; conditions: p53 expressing line; read-out: IC50, proliferation of MOLT-4 cells
Experimental: The products are tested on different cell lines. The cells used are RDM4 from a murine T lymphoma and a MOLT-4 line originating from an acute lymphoblastic leukemia. These cancer lines both express the p53 protein, unlike the HL-60 cells from a human promyelocytary leukemia where, following deletion of its gene, p53 is absent.
All of these cells are cultivated in RPMI 1640-Glutamax, supplemented by 10% calf foetal serum heat inactivated at 56° C. for 30 minutes, 1 mM sodium pyruvate, 1 mM non-essential amino acids and 50 μg/mL gentamycine (Life Technologies, Cergy Pontoise, France). The cultures are kept in an incubator at 37° C. with a moisture saturated atmosphere, with 5% CO2.
This test uses the UptiBlue reagent (Interchim, Montluçon, France), metabolised by the living cells. The cells are incubated on plates with 96 wells with 10^4 cells/well (200 μL) with the product and cultivated for 72 hours. Then, 20 μL UptiBlue are added to each well. After 3 hours incubation, the fluorescence of the samples contained in the plates is measured at 590 nm (excitation at 560 nm), using a Fluorolite 1000 microplate reader (Dynex technologies, Issy-Les-Moulineaux, France). […]

A172 glioblastoma cells = experiment: Nucleus morphology and caspase 3 activation in A172 cells; type: cell-based, human; conditions: cisplatinum 15 μM, CDR6 15 μM, CDR9 15 μM
Text: FIG. 2: A—The A172 cells were cultivated on glass slides. […] The cells were then fixed in 4% paraformaldehyde, permeabilised with 0.1% NP40 and marked with Hoechst dye (blue) and the anti-p20 antibody (active fragment of caspase 3, in red). The cells were then observed under the fluorescence microscope. B—Graphic representation of the number of cells with an apoptotic, fragmented or condensed nucleus. The bars are an average of two slides from one experiment representative of 3 carried out. C—In parallel, proteic extracts were prepared from cells treated with various drugs (cisplatinum 15 μM; CDR225 μM; CDR615 μM; CDR915 μM) and following denaturation the extracts were deposited on a !0% SDS-Page gel. After migration, the proteins were transferred onto nitrocellulose (Biorad, 0.2 μm) and the p20 fragment of the caspase 3 was detected by Western blot with an anti-p20 antibody (1/1000, R&D System).
The first step towards characterising the anticancerous effects of the compounds derived from ruthenium consists of testing their activity on tumoral lines kept in culture and comparing these effects on lines which have different characteristics as regards resistance to the anticancer treatments. Two lines of human glioblastomas (A172, HS683) and two lines of neuroblastomas (N2A and SH5Y) were used in order to test the cytostatic effects of the compounds according to the invention. Cisplatinum was chosen as the cytotoxic comparison agent. In a first approach, an MTT test was used to measure the activity of a mitochondrial enzyme, and this gives an estimate of the number of cells. Then, the cytotoxic effects of the compounds according to the invention were characterised in greater detail by analysing the morphology of the nucleus and the activation of caspase 3—two markers of cell apoptosis.

Molecule	cell cycle distribution (propidium iodure) (RDM4; 15 μM, first two days)	hypodiploid particles (sub-G0 DNA content) (RDM4; 45 μM, 72 hrs)	IC50 (MOLT-4)	proteic levels of the active fragment of caspase 3 (Western blot) (A172 glioblastoma cells)
[Ru(C6H4-2-C5H4N)(phen)(NCMe)2]PF6 [Compound 11]	accumulation in the G0/G1 phase	60%		
N.N.[Cl][Pt][Cl] [Cisplatinum, reference compound]			< 500 nM	increasing the proteic levels of the active fragment of caspase 3
